The source of these data is patent US7229987B2, “Multicyclic compounds for use as melanin concentrating hormone antagonists in the treatment of obesity and diabetes” (Eli Lilly and Company, priority 2002, dated 2007).

Structures are written as SMILES. Counter-ions that a name gives are not always drawn.

`CN(C)CCNC(=O)Nc1ccc(-c2cnc(COCc3cc4ccccc4o3)o2)cc1` [Example 254, 1-{4-[2-(benzofuran-2-ylmethoxymethyl)-oxazol-5-yl]-phenyl}-3-(2-dimethylamino-ethyl)-urea] showed a melting point of 150 to 154 °C.

For `CN(C)CCNC(=O)Nc1ccc(-c2cnc(CSCCOc3ccccc3)o2)cc1.O=C(O)/C=C\C(=O)O` [Example 250, 1-(2-Dimethylamino-ethyl)-3-{4-[2-(2-phenoxy-ethylsulfanylmethyl)-oxazol-5-yl]-phenyl}-urea maleate], the melting point lay within 105 to 107 °C.

Take `CN(C)CCCOc1ccc(-c2nnc(-c3ccc(-c4ccccc4)cc3)o2)cc1` [Example 58, {3-[4-(5-biphenyl-4-yl-[1,3,4]oxadiazol-2-yl)-phenoxy]-propyl}-dimethylamine]: the melting point was in the range of 130 to 132 °C.

Molecule `COCCSCc1nnc(-c2ccc(OCCCN(C)C)cc2)o1` (as salt: maleate) [Example 281, (3-{4-[5-(2-methoxy-ethylsulfanylmethyl)-[1,3,4]oxadiazol-2-yl]-phenoxy}-propyl)-dimethyl-amine] displayed a melting point of 97.5 to 99 °C.

Molecule `O=C(O)C(=O)O.c1ccc(OCCSCc2ncc(-c3ccc(OCCCN4CCCCCCC4)cc3)o2)cc1` [Example 267, 1-(3-{4-[2-(2-phenoxy-ethylsulfanylmethyl)-oxazol-5-yl]-phenoxy}-propyl)-azocane oxalic acid salt] gave a melting point of 89 to 94 °C.

In the case of `CN(C)CCNC(=O)c1ccc(-c2nnc(CSCCOc3ccccc3)o2)cc1` [Example 54, N-(2-dimethylaminoethyl)-4-[5-(2-phenoxyethylsulfanylmethyl)-[1,3,4]oxadiazol-2-yl]-benzamide], the melting point is 94 to 100 °C.

As to `CN(C)CCCCOc1ccc(-c2nnc(CSCCOc3ccccc3)o2)cc1` [Example 68, dimethyl-(4-{4-[5-(2-phenoxy-ethylsulfanylmethyl)-[1,3,4]oxadiazol-2-yl]-phenoxy}-butyl)-amine], the melting point is 62 to 63 °C.

The molecule `CN(C)CCCCCCCOc1ccc(-c2nnc(CSCCOc3ccccc3)o2)cc1` [Example 71, dimethyl-(7-{4-[5-(2-phenoxy-ethylsulfanylmethyl)-[1,3,4]oxadiazol-2-yl]-phenoxy}-heptyl)-amine] had a melting point of 39 to 40 °C.

In turn, `O=C(NCCN1CCCCC1)Nc1ccc(-c2nnc(CSCCOc3ccccc3)o2)cc1` [Example 107, 1-{4-[5-(2-phenoxy-ethylsulfanylmethyl)-[1,3,4]oxadiazol-2-yl]-3-phenyl}-3-(2-piperidin-1-yl-ethyl)-urea] came in with a melting point of 126 to 128 °C.

Molecule `Nc1ccc(-c2nnc(CSCCOc3ccccc3)o2)cc1` [Example 116, 4-[5-(2-phenoxy-ethylsulfanylmethyl)-[1,3,4]oxadiazol-2-yl]-phenylamine] showed a melting point of 126 to 130 °C.

As to `c1ccc(OCCSCc2nnc(-c3ccc(OCCCCN4CCSCC4)cc3)o2)cc1` [Example 94, 4-(4-{4-[5-(2-phenoxy-ethylsulfanylmethyl)-[1,3,4]oxadiazol-2-yl]-phenoxy}-butyl)-thiomorpholine], the melting point was 58 °C.

Molecule `c1ccc(OCCSCc2nnc(-c3ccc(OCCCCN4CCOCC4)cc3)o2)cc1` [Example 92, 4-(4-{4-[5-(2-phenoxy-ethylsulfanylmethyl)-[1,3,4]oxadiazol-2-yl]-phenoxy}-butyl)-morpholine] yielded a melting point of 64 to 67 °C.

`CN(C)CCCOc1ccc(-c2nnc(CSCCOC(C)(C)C)o2)cc1` [Example 280, (3-{4-[5-(2-tert-butoxy-ethylsulfanylmethyl)-[1,3,4]oxadiazol-2-yl]-phenoxy}-propyl)-dimethyl-amine] had a melting point of 84.5 to 85.5 °C.

In the case of `c1ccc(OCCSCc2nnc(-c3ccc(OCCN4CCCCC4)cc3)o2)cc1` [Example 72, 1-(2-{4-[5-(2-phenoxy-ethylsulfanylmethyl)-[1,3,4]oxadiazol-2-yl]-phenoxy}-ethyl)-piperidine], the melting point was found to be 70 °C.

`CN(C)CCCCNC(=O)c1ccc(-c2nnc(CSCCOc3ccccc3)o2)cc1` [Example 55, N-(4-dimethylaminobutyl)-4-[5-(2-phenoxyethylsulfanylmethyl)-[1,3,4]oxadiazol-2-yl]-benzamide] displayed a melting point of 71 to 78 °C.

Consider `CN(C)CCCCCCNC(=O)c1ccc(-c2nnc(CSCCOc3ccccc3)o2)cc1` [Example 57, N-(6-dimethylaminohexyl)-4-[5-(2-phenoxyethylsulfanylmethyl)-[1,3,4]oxadiazol-2-yl]-benzamide], for which the melting point was in the range of 86 to 93 °C.

`COc1ccc(OCCSCc2nnc(-c3ccc(OCCCN(C)C)cc3)o2)cc1` [Example 277, [3-(4-{5-[2-(4-methoxy-phenoxy)-ethylsulfanylmethyl]-[1,3,4]oxadiazol-2-yl}-phenoxy)-propyl]-dimethyl-amine] showed a melting point of 77.5 to 78 °C.

Consider `CN(C)CCCNc1ccc(-c2nnc(CSCCOc3ccccc3)o2)cn1` [Example 259, N,N-Dimethyl-N′-{5-[5-(2-phenoxy-ethylsulfanylmethyl)-[1,3,4]oxadiazol-2-yl]-pyridin-2-yl}-propane-1,3-diamine], for which the melting point was 94 to 96 °C.

With `c1ccc(OCCSCc2nnc(-c3ccc(OCc4ccccn4)cc3)o2)cc1` [Example 99, 2-{4-[5-(2-phenoxy-ethylsulfanylmethyl)-[1,3,4]oxadiazol-2-yl]-phenoxymethyl}-pyridine], the melting point came out at 115 °C.

In turn, `c1ccc(OCCSCc2nnc(-c3ccc(OCCCN4CCOCC4)cc3)o2)cc1` [Example 87, 4-(3-{4-[5-(2-phenoxy-ethylsulfanylmethyl)-[1,3,4]oxadiazol-2-yl]-phenoxy}-propyl)-morpholine] showed a melting point of 65 °C.

As for `CN(C)CCCCCOc1ccc(-c2nnc(CSCCOc3ccccc3)o2)cc1` [Example 69, dimethyl-(5-{4-[5-(2-phenoxy-ethylsulfanylmethyl)-[1,3,4]oxadiazol-2-yl]-phenoxy}-pentyl)-amine], the melting point was in the range of 51 to 54 °C.

For `c1ccc(OCCSCc2ncc(-c3ccc(OCCN4CCCCCC4)cc3)o2)cc1` [Example 265, 1-(2-{4-[2-(2-phenoxy-ethylsulfanylmethyl)-oxazol-5-yl]-phenoxy}-ethyl)-azepane], the melting point was 35 to 38 °C.

`c1ccc(OCCSCc2nnc(-c3ccc(OCCCN4CCCC4)cc3)o2)cc1` [Example 88, 2-(2-phenoxy-ethylsulfanylmethyl)-5-[4-(3-pyrrolidin-1-yl-propoxy)-phenyl]-[1,3,4]oxadiazole] yielded a melting point of 70 °C.

In the case of `CN(C)CCNC(=O)c1cccc(-c2nnc(CSCCOc3ccccc3)o2)c1` [Example 60, N-(2-Dimethylamino-ethyl)3-[5-(2-phenoxy-ethylsulfanylmethyl)-[1,3,4]oxadiazol-2-yl]-benzamide], the melting point turned out to be 64 °C.

Regarding `C(=C\c1ccc(-c2cnc(CSCCOc3ccccc3)o2)cc1)/CN1CCCC1` [Example 268, 2-(2-phenoxy-ethylsulfanylmethyl)-5-[4-(3-pyrrolidin-1-yl-propenyl)-phenyl]-oxazole], the melting point was in the range of 73 to 75 °C.

The molecule `c1ccc(OCCSCc2nnc(-c3ccc(OCCCN4CCSCC4)cc3)o2)cc1` [Example 82, 4-(3-{4-[5-(2-phenoxy-ethylsulfanylmethyl)-[1,3,4]oxadiazol-2-yl]-phenoxy}-propyl)-thiomorpholine] showed a melting point of 85 °C.

`c1ccc(OCCSCc2nnc(-c3ccc(OCc4ccncc4)cc3)o2)cc1` [Example 98, 4-{4-[5-(2-phenoxy-ethylsulfanylmethyl)-[1,3,4]oxadiazol-2-yl]-phenoxymethyl}-pyridine]: the melting point was 80 to 90 °C.

The molecule `CN(C)CCCNC(=O)c1ccc(-c2nnc(CSCCOc3ccc(Cl)cc3Cl)o2)cc1` [Example 44, 4-{5-[2-(2,4-dichlorophenoxy)-ethylsulfanylmethyl]-[1,3,4]-oxadiazol-2-yl}-N-(3-dimethylaminopropyl)-benzamide] registered a melting point of 140 to 141 °C.

The molecule `c1ccc(OCCSCc2nnc(-c3ccc(OCCCN4CCCCC4)cc3)o2)cc1` [Example 75, 1-(3-{4-[5-(2-phenoxy-ethylsulfanylmethyl)-[1,3,4]oxadiazol-2-yl]-phenoxy}-propyl)-piperidine] showed a melting point of 65 °C.

Consider `N#CCCCOc1ccc(-c2nnc(CSCCOc3ccccc3)o2)cc1` [Example 264, 4-{4-[5-(2-phenoxy-ethylsulfanylmethyl)-[1,3,4]oxadiazol-2-yl]-phenoxy}-butyronitrile], for which the melting point lay in the range of 67 to 68 °C.

`c1ccc2oc(Cc3nnc(-c4ccc(OCCCN5CCCCC5)cc4)o3)cc2c1` [Example 270, 1-{3-[4-(5-Benzofuran-2-yl-methyl-[1,3,4]oxadiazol-2-yl)-phenoxy]-propyl}-piperidine] displayed a melting point of 76 to 79 °C.

The molecule `CN(C)CCCNC(=O)c1ccc(-c2nnc(CSCCCOc3ccccc3)o2)cc1` [Example 47, N-(3-dimethylaminopropyl)-4-[5-(3-phenoxypropylsulfanylmethyl)-[1,3,4]oxadiazol-2-yl]-benzamide] registered a melting point of 77 to 80 °C.

`CN(C)CCCOc1ccc(-c2nnc(CSCCOc3ccccc3)n2Cc2ccccc2)cc1.O=C(O)C(=O)O` [Example 246, (3-{4-[4-benzyl-5-(2-phenoxyethylsulfanylmethyl)-4H-[1,2,4]triazol-3-yl]-phenoxy}-propyl)-dimethyl-amine, oxalic acid salt] returned a melting point of 88 to 92 °C.

Turning to `O=C(NCCN1CCCCC1)Nc1ccc(-c2cnc(CSCCOc3ccccc3)o2)cc1` [Example 252], the melting point fell in the range of 84 to 87 °C.

Take `O=C1N(CCN2CCCC2)CCN1c1ccc(-c2nnc(CSCCOc3ccccc3)o2)cc1` [Example 257, 1-{4-[5-(2-phenoxy-ethylsulfanylmethyl)-[1,3,4]oxadiazol-2-yl]-phenyl}-3-(2-pyrrolidin-1-yl-ethyl)-imidazolidin-2-one]: the melting point is 125 to 129 °C.

The molecule `CN(C)CCCOc1ccc(-c2nnc(CSCCCCOc3ccccc3)o2)cc1` [Example 50, dimethyl-(3-{4-[5-(4-phenoxybutylsulfanylmethyl)-[1,3,4]oxadiazol-2-yl]-phenoxy}-propyl)-amine] registered a melting point of 69 to 73 °C.

A word on the melting point: it is the temperature of the solid-liquid transition.
